# Measured values taken from US20150224061A1, “NANOCONSTRUCTS WITH PHARMACOLOGICAL ACTIVITY” (UNIVERSITA' DEGLI STUDI DI MILANO - BICOCCA, priority 2012, published 2015).
# Like-named read-outs stand apart in the source and are kept apart here. Where no end group is shown, it is not given here.
# Legend:
# [1] = test system: transduction signal pathway of NFAT; experiment: IL-2 production (ELISA) by LPS-stimulated DCs derived from bone marrow, marker of NFAT pathway; assay type: cell-based, mouse; conditions: 18 hours; for inhibition of NFAT activity (IL-2 release, ELISA): peptide 25 uM pretreatment, LPS 100 ng/ml
# Experimental: (§1) FIG. 2. Inhibition of the transduction of the NFAT signals by means of the MYTS-VIVIT nanoconstructs in DCs derived from bone marrow. The DCs were pre-treated, or not, with the indicated quantities of MYTS-VIVIT for two hours and then activated with LPS for 18 hours. The quantities of IL-2 and TNFα in the supernatant were measured using the ELISA method.
# (§2) In order to assess whether nanoconstructs are able to inhibit the transduction signal pathway of NFAT, the following experiments were carried out in vitro. After exposure to LPS, the DCs derived from bone marrow were able to produce various inflammatory cytokines, including IL-2 and TNFα. IL-2 was strictly NFAT-dependent, whereas the production of TNFα was NF-kB-dependent and NFAT-independent. IL-2 and TNFα are therefore valid markers respectively of the activation pathway of NFAT and NF-kB. After two hours of pretreatment with the nanoconstructs obtained as described in example 1, the DCs derived from bone marrow were stimulated with LPS and the quantity of released cytokines was measured using the ELISA method 18 hours later.
# (§3) DCs produce IL-2 in an NFAT-dependent manner if stimulated with LPS. To assess the efficacy of the VIVIT peptide, DCs derived from bone marrow were transduced with a sequence coding the VIVIT peptide fused with the GFP protein through use of a retroviral vector.
# Since DCs are phagocyte cells, we firstly used the non-modified peptide, assuming that this could reach the cell cytosol once entered into the endosomal compartment. We then carried out co-cultures of DCs with the VIVIT peptide, and the inhibition of NFAT was analyzed by measuring the production of IL-2 following stimulation with LPS. […] A modified VIVIT peptide was then assessed, to which a […] 11-arginine tail had been attached. It has, in fact, been described in the literature that this modification can allow entry into the cells.
# NF-kB = experiment: TNFα production (ELISA) by LPS-stimulated DCs derived from bone marrow, marker of NF-kB pathway; assay type: cell-based, mouse; conditions: 2 h pretreatment, then LPS, 18 hours
# Experimental: as §1, §2, §3
# [2] = test system: transduction signal pathway of NFAT; experiment: GFP+ Ly6G+ spleen neutrophils in IL-2/GFP mutant mice after LPS; assay type: in vivo, mouse; conditions: i.v. two hours before LPS injection
# Experimental: FIG. 3. The NFAT pathway is active in the neutrophils. Mice genetically modified by IL-2/GFP were treated, or not, with MYTS-VIVIT and were then injected intravenously two hours after with LPS. The bars represent the percentage of GFP+Ly6G^+ spleen neutrophils […] after the treatment with LPS. In this mouse model, GFP was inserted in the second exon of IL-2 and therefore has the same regulation of IL-2.
# Mutant mice (obtained from laboratories of Ronald H. Schwartz, NIH Bethesda) were used for this experiment. In this mouse model, the GFP protein was inserted into the second exon of the gene IL-2, and therefore had the same regulation of IL-2. As mentioned before, IL-2 is a marker of NFAT activation. If the mice genetically modified with regard to IL-2/GFP are treated with LPS, a significant percentage of GFP+ neutrophils (Ly6G+ cells) can be measured in the spleen two hours after treatment. To verify whether the nanoconstructs of the present invention are able to inhibit the signal pathway of NFAT in vivo, mutant mice were injected endovenously with the nanoconstructs as prepared in example 1 two hours before the injection of LPS.
# [3] = test system: NFAT-dependent edema induced by LPS; experiment: LPS-induced paw edema model; assay type: in vivo, mouse; conditions: subcutaneous pretreatment 2 hours prior to LPS in the paw
# Experimental: FIG. 4. Inhibition of the NFAT pathway in the formation of edema of the paw in response to LPS. The animals were pretreated, or not, with the nanoconstructs (MYTS-VIVIT) or FK-506 (approximately 2 h) and were then treated locally with LPS.
# To assess whether the nanoparticles of the present invention are able to inhibit in vivo the formation of LPS-induced edema, the mice were pretreated, or not, with the nanoconstructs of example 1 or FK506 as control sub-cutaneously for 2 hours prior to the injection of LPS in the paw.
# inflammatory arthritis = experiment: Arthritis induced by anti-collagen antibodies/LPS; assay type: in vivo, C57BL6 mice; conditions: treated on days −1, 0, +1, +3, +6, +9, +12
# Experimental: FIG. 5. Inhibition of the development of arthritis. FIG. 5A: the mice were treated endovenously, or were not treated, at −1, 0, +1, +3, +6, +9, and +12 days with the nanoconstructs (MYTS-VIVIT) or with nanoconjugates MYTS-VEET (a peptide similar to VIVIT in which the sequence has been modified, thus losing specificity for Cn). Day 0 represents the start of the procedure of inducing arthritis. The clinical points indicative of the severity of the arthritis were assessed on the days indicated. In FIG. 5B, photographs showing arthritis on the seventh day in a treated mouse and in an untreated mouse are shown.
# Rheumatoid arthritis (AR) is a chronic, debilitating systemic autoimmune disease characterized by an immunological inflammatory reaction of the mesenchymal tissue and of the synovial fluid accompanied by polyarticular synovitis. Over time, it leads to the progressive destruction of the articular and periarticular structures. […] To verify whether the nanoconstructs of the present invention are able to inhibit the development of inflammatory arthritis, a model of arthritis induced by anti-collagen antibody of the IL/LPS type was used. In particular, six C57BL6 mice were treated on days −1, 0, +1, +3, +6, +9, +12 with the nanoconstructs of example 1.
# [4] = test system: skin transplant rejection; experiment: Skin transplant rejection model (male skin into female mice); assay type: in vivo, mouse
# Experimental: FIG. 6. Inhibition of skin transplant rejection. Male skin was grafted in female mice. The mice were then injected endovenously, or not, with the nanoconstructs (MYTS-VIVIT or MYTS-VEET) on days −1, 0, +1, +3, +6, +9, +12, and +15. In addition, the mice were then left without treatment for a further 20 days. The boxes M in M represent the untreated controls and show the skin transplant from male mouse to male mouse. […] The boxes M in F represent the skin transplant from male mouse to female mouse without treatment with the nanoconstructs. The scar of the rejection is clearly visible on day 30. The rejection can also be seen in boxes M in F (male into female) treated with the control MYTS-VEET nanoconstructs. Vice versa, in the boxes representing the transplant from male to female with MYTS-VIVIT treatment (M in F+MYTS-VIVIT), the acceptance of the graft is clearly visible. The bar chart beneath represents a quantification of the results of the experiment. To summarize, the transplant was accepted in 80% of cases treated with the MYTS-VIVIT nanoconstructs, whereas it was rejected in 100% of untreated cases and in 80% of cases treated with the control MYTS-VEET nanoconstruct.
# To verify whether the nanoconstructs of the present invention are able to inhibit transplant rejection, a skin transplant model was used. […]
# NFAT = conditions: cited from earlier work
# [5] = test system: NF-kB transcription factor; conditions: cited from earlier work
# calcineurin (Cn) = conditions: cited from earlier work
# neurons = conditions: i.v., 1 hour, magnet applied to the skull
# Experimental: Then, a staining of the neurons was carried out with the fluorescent probe NeuroTrace (which stains the substance Nissi, which is abundant in neuronal cells and is formed from ribosomal RNA associated with the endoplasmic reticulum).
substance,measurement,setting,value
MYTS-VIVIT (H-CGGGKMAGPVIVITGPHEE-OH; not fully specified; printed as NH2—CGGGKMAGPVIVITGPHEE-COOH),IL-2 released (ELISA),"[1]; 2 h pretreatment, then LPS",completely block IL-2
same,TNFα released (ELISA),NF-kB,not the production of TNFα
same,percentage of GFP+ Ly6G+ spleen neutrophils,[2],strong impact on the ability of the neutrophils to produce GFP
same,formation of LPS-induced paw edema,[3],significantly inhibited
same,development of arthritis (clinical points),inflammatory arthritis,inhibit the development of arthritis very effectively
same,skin transplants accepted,"[4]; i.v. treatment from day −1, after four weeks / day 30",80%
same,skin transplants accepted,"[4]; i.v. treatment from day −1, after four weeks / day 30, listed as nanoconstructs bearing the VIVIT peptide",90%
NH2—CGGGKMAGPVIVITGPHEE-COOH (H-CGGGKMAGPVIVITGPHEE-OH; listed as Homo sapiens),"inhibition of NFAT activity (IL-2 release, ELISA)",[1],unable to penetrate into the cytosol of the DCs and to block the activity of NFATs
same,"inhibition of NFAT activity (IL-2 release, ELISA)","[1]; listed as free, non-modified VIVIT peptide",did not make it possible to interfere with the activity of NFAT
Val-Ile-Val-Ile-Thr [VIVIT],inhibition of NFAT (gene reporter),NFAT,effectively inhibits NFAT and its activity
same,inhibition of NF-kB (gene reporter),[5],not the activity of the NF-kB transcription factor
same,affinity for Cn,calcineurin (Cn),increased affinity for Cn
enfuvirtide,accumulation of AF660-labeled drug in neurons (confocal microscopy),neurons; listed as free enfuvirtide,only in the case of the drug conjugated to the MYTS nanoparticles
same,accumulation of AF660-labeled drug in neurons (confocal microscopy),neurons; listed as labeled drug not conjugated to the nanoparticles,traces of fluorescence cannot be seen
"peptide with an 11-arginine tail: peptide with sequence SEQ ID NO:1 conjugated with an 11-arginine tail (CGGGKMAGPVIVITGPHEE; also: 11-arginine tail conjugated, end not given here; listed as Homo sapiens)","inhibition of NFAT activity (IL-2 release, ELISA)",[1],unable to penetrate into the cytosol of the DCs and to block the activity of NFATs
same,"inhibition of NFAT activity (IL-2 release, ELISA)",[1]; listed as modified VIVIT peptide,not possible to observe any inhibition of the NFAT pathway
